Measurements taken from patent publication EP0141119A2, “Sulfenamide derivatives, process for their preparation, and medicaments containing these compounds” (LUDWIG HEUMANN & CO GMBH, priority 1983, dated 1985).

Biological target: T1, Histamin-H2-Rezeptoren (Cavia porcellus, UniProt P47747)
T1 construct: in vitro am isolierten rechten Vorhof des Meerschweinchens; from tissue; host or cells: isolated right atrium of the guinea pig
Assay: Determination of pA2 values in vitro on the isolated right atrium of the guinea pig (H2-antagonistic activity)
Type: cell-based, Meerschweinchen
Conditions: read-out: pA2-Werte (converted)
Text: Eine anerkannte Methode zur Bestimmung H2-antagonistischer Wirksamkeit ist die Ermittlung der pA2-Werte in vitro am isolierten rechten Vorhof des Meerschweinchens.

T1 sequence (P47747 whole entry): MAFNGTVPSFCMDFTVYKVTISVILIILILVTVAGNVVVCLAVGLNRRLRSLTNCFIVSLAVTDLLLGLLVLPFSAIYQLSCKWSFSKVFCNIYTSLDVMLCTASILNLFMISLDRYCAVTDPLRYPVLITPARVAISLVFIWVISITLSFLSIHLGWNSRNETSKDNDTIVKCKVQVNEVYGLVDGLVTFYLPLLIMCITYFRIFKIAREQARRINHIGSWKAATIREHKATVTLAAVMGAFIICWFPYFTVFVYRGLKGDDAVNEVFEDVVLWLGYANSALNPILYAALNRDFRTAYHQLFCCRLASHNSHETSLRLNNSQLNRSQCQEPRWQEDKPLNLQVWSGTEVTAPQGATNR

Compound | Kb
Cc1ccc(SNc2nc(NCCCOc3cccc(CN4CCCCC4)c3)n(C)n2)cc1 [Beispiel 1, 1-Methyl-5-[3-[3-(1-piperidinylmethyl)phenoxy]propylamino]-3-(4-methyl-benzolsulfenamido)-1H-1,2,4-triazol] | 1.58 nM
CNC(=C[N+](=O)[O-])NCCSCc1ccc(CN(C)C)o1 [Ranitidin] | 155 nM
